The values that follow come from patent publication US8822449B2, “Substituted aminoindanes and analogs thereof, and the pharmaceutical use thereof” (Sanofi, priority 2008, dated 2014).

Each structure is given as a SMILES string. Where two headings read alike, the source gives them in different places.

This experiment addresses T1, sodium-proton exchanger of subtype 3 (NHE3) (Homo sapiens, UniProt P48764).
T1 construct: expressed in transfected cells
T1 sequence (P48764 26-834): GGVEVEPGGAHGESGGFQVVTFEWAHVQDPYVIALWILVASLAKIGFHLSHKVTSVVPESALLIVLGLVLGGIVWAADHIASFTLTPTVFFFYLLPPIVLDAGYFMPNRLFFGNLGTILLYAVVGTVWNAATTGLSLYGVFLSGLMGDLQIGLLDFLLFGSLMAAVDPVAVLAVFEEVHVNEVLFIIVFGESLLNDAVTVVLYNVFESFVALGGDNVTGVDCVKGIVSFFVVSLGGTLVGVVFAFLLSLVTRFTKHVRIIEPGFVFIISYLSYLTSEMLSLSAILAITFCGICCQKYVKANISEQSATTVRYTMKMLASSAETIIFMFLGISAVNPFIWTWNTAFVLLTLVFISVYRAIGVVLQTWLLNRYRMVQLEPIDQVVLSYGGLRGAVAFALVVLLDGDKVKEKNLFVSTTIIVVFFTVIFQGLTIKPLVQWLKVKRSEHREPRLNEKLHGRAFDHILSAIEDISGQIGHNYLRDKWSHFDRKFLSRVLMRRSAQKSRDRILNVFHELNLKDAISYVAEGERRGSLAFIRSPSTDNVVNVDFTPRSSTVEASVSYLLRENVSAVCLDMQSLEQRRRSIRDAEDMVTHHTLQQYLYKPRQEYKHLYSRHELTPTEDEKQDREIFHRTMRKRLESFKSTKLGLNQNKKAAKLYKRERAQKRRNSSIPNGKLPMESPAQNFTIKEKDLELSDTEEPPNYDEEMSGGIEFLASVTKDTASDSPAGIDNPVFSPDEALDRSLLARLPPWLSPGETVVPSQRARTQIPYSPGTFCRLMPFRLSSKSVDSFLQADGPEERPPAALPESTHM
As to the kind of experiment: Recovery of intracellular pH (pHi) after acidification in LAP1 cells stably expressing NHE3 (BCECF fluorescence, FLIPR). The format is cell-based. Conditions: LAP1 cells stably expressing NHE3, pH recovery after acidification, range 1 is % inhibition at 10 μM.

Setting [1] is: read-out: Activity range (inhibitory effect on NHE3).

For the molecule `Cc1cn(-c2ccc(O[C@H]3c4cc(Cl)cc(Cl)c4C[C@@H]3N3CC[C@@H](O)C3)cc2)c(C(C)C)n1` [Example 714, (R)-1-{trans-(1S,2S)-4,6-Dichloro-1-[4-(2-isopropyl-4-methyl-imidazol-1-yl)-phenoxy]-indan-2-yl}-pyrrolidin-3-ol], the IC50 under setting [1] lay in the range of 1000 to 10000 nM. On to `CS(=O)(=O)c1ccc(OC2c3ccccc3CC2N2CCC[C@@H](N)C2)c(Cl)c1` (mixture of isomers) [Example 37, (R)-1-[rac-trans-(1,2)-1-(2-chloro-4-methanesulfonylphenoxy)indan-2-yl]piperidin-3-ylamine], for which, under setting [1], the IC50 was less than 1000 nM. Same read-out and setting: then `CN(C1CCCC1)[C@@H]1Cc2ccccc2[C@H]1Oc1ccc(S(C)(=O)=O)cc1` (racemic) [Example 730, Cyclopentyl-[rac-trans-(1,2)-1-(4-methanesulfonyl-phenoxy)-indan-2-yl]-methyl-amine], with 1000 to 10000 nM; and `O=S(=O)(NCC(F)(F)F)c1ccc(O[C@@H]2c3ccccc3C[C@H]2N2CCCC2)cc1` (racemic) [Example 469, 4-(rac-trans-(1,2)-2-pyrrolidin-1-ylindan-1-yloxy)-N-(2,2,2-trifluoroethyl)benzenesulfonamide], with 1000 to 10000 nM. For the molecule `Cc1nnc(C)n1-c1ccc(O[C@H]2c3ccccc3C(C)(C)[C@@H]2N2CCCC2)cc1` (racemic) [Example 497, 4-[4-(rac-trans-(1,2)-3,3-dimethyl-2-pyrrolidin-1-ylindan-1-yloxy)phenyl]-3,5-dimethyl-4H-[1,2,4]triazole], the inhibition at 10 µM under setting [1] is 20 to 50%. Regarding `CS(=O)(=O)c1ccc(O[C@H]2c3ccccc3CC[C@@H]2N2CCC[C@@H](N)C2)cc1` (racemic) [Example 73, (R)-1-[rac-trans-(1,2)-1-(4-methanesulfonylphenoxy)-1,2,3,4-tetrahydronaphthalen-2-yl]piperidin-3-ylamine], the IC50 under setting [1] is less than 1000 nM. Take `CS(=O)(=O)c1ccc(O[C@H]2c3ccccc3C[C@@H]2NCC2CCCC2)cc1` (racemic) [Example 705, Cyclopentylmethyl-[rac-trans-(1,2)-1-(4-methanesulfonyl-phenoxy)-indan-2-yl]-amine]: under setting [1], the IC50 lay within 1000 to 10000 nM.

In the case of `CC(=O)Nc1cccc(O[C@H]2c3cc(Cl)cc(Cl)c3C[C@@H]2N(C)C)c1` (racemic) [Example 645, N-[3-(rac-trans-(1,2)-4,6-dichloro-2-dimethylaminoindan-1-yloxy)phenyl]acetamide], the IC50 under setting [1] lay in the range of 1000 to 10000 nM. Same read-out and setting: then `N#Cc1ccc(O[C@H]2c3ccccc3CC[C@@H]2N2CCC[C@H](N)C2)cc1` (racemic) [Example 535, 4-[rac-trans-(1,2)-2-((S)-3-aminopiperidin-1-yl)-1,2,3,4-tetrahydronaphthalen-1-yloxy]benzonitrile], with 1000 to 10000 nM; and `c1ccc2c(c1)C[C@H](N1CCCC1)[C@H]2Oc1cccc2cccnc12` (racemic) [Example 595, 8-(rac-trans-(1,2)-2-pyrrolidin-1-ylindan-1-yloxy)quinoline], with 1000 to 10000 nM. As for `Cc1cc2c(O[C@H]3c4ccccc4CC[C@@H]3N3CCOCC3)cccc2[nH]1` (racemic) [Example 399, 2-methyl-4-(rac-trans-(1,2)-2-morpholin-4-yl-1,2,3,4-tetrahydronaphthalen-1-yloxy)-1H-indole], under setting [1], the inhibition at 10 µM lay within 20 to 50%.

With `CC(C)[C@H]1COC(=O)N1c1ccc(Cl)c(O[C@H]2c3cc(Cl)cc(F)c3C[C@@H]2N2CC[C@@H](O)C2)c1` [Example 211, (S)-3-{4-chloro-3-[(1S,2S)-6-chloro-4-fluoro-2((R)-3-hydroxypyrrolidin-1-yl)indan-1-yloxy]phenyl}-4-isopropyloxazolidin-2-one], the inhibition at 10 µM under setting [1] was in the range of 20 to 50%. Turning to `CC1(C)NC(=O)N(c2ccc(Cl)c(O[C@H]3c4cc(Cl)cc(F)c4C[C@@H]3N3CC[C@@H](O)C3)c2)C1=O` [Example 436, 3-{4-chloro-3-[(1S,2S)-6-chloro-4-fluoro-2-((R)-3-hydroxypyrrolidin-1-yl)indan-1-yloxy]phenyl}-5,5-dimethylimidazolidine-2,4-dione], the IC50 under setting [1] was 1000 to 10000 nM. In the case of `CC(=O)Nc1cccc(O[C@H]2c3cc(Cl)cc(Cl)c3C[C@@H]2N2C[C@H]3CC[C@@H](C2)N3)c1` [Example 664, N-[3-(trans-(1S,2S)-4,6-dichloro-2-3,8-diazabicyclo[3.2.1]oct-3-ylindan-1-yloxy)phenyl]acetamide], the IC50 (Activity range (inhibitory effect on NHE3)) was less than 1000 nM. As to `COCCN(C)[C@H]1Cc2c(Cl)cc(Cl)cc2[C@@H]1Oc1ccc(S(C)(=O)=O)cc1` [Example 218, [trans-(1S,2S)-4,6-dichloro-1-(4-methanesulfonylphenoxy)indan-2-yl]-(2-methoxyethyl)-methylamine], under setting [1], the inhibition at 10 µM lay within 20 to 50%.

`Cc1nnc(C)n1-c1ccc(O[C@H]2c3cc(Cl)ccc3C[C@@H]2N2CC[C@@H](O)C2)c(Cl)c1` [Example 139, (R)-1-{trans-(1S,2S)-6-chloro-1-[2-chloro-4-(3,5-dimethyl-[1,2,4]triazol-4-yl)phenoxy]indan-2-yl}pyrrolidin-3-ol]: the IC50 under setting [1] is less than 1000 nM. For `Cc1nnc(C)n1-c1ccc(O[C@H]2c3cc(F)cc(F)c3C[C@@H]2N2CC[C@@H](O)C2)c(Cl)c1` [Example 109, (R)-1-{(1S,2S)-1-[2-chloro-4-(3,5-dimethyl-[1,2,4]triazol-4-yl)phenoxy]-4,6-difluoroindan-2-yl}pyrrolidin-3-ol], under setting [1], the IC50 was less than 1000 nM. As for `N[C@H]1CCCN([C@H]2CCc3ccccc3[C@@H]2Oc2ccc(F)cc2F)C1` (racemic) [Example 149, (S)-1-[rac-trans-(1,2)-1-(2,4-difluorophenoxy)-1,2,3,4-tetrahydronaphthalen-2-yl]piperidin-3-ylamine], the inhibition at 10 µM under setting [1] lay within 20 to 50%. As for `O=C1CCC(=O)N1c1cccc(O[C@H]2c3cc(Cl)cc(Cl)c3C[C@@H]2N2CC[C@@H](O)C2)c1` [Example 316, 1-{3-[(1S,2S)-4,6-dichloro-2-((R)-3-hydroxypyrrolidin-1-yl)indan-1-yloxy]phenyl}pyrrolidine-2,5-dione], the IC50 under setting [1] was in the range of 1000 to 10000 nM. The same measure, in the same setting: then `O=C1COCC(=O)N1c1ccc(O[C@H]2c3cc(Cl)cc(Cl)c3C[C@@H]2N2CC[C@@H](O)C2)c(F)c1` [Example 560, 4-{4-[(1S,2S)-4,6-dichloro-2-((R)-3-hydroxypyrrolidin-1-yl)indan-1-yloxy]-3-fluorophenyl}morpholine-3,5-dione], with less than 1000 nM; and `CN1CCN(C(=O)c2ccc(O[C@H]3c4ccccc4C[C@@H]3N3CCCC3)cc2)CC1` (racemic) [Example 22, (4-methylpiperazin-1-yl)-[4-(rac-trans-(1,2)-2-pyrrolidin-1-ylindan-1-yloxy)phenyl]methanone], with 1000 to 10000 nM. Take `CN(C)C[C@H]1Cc2c(Cl)cc(Cl)cc2[C@@H]1Oc1ccc(S(C)(=O)=O)cc1` (racemic) [Example 217, [rac-trans-(1,2)-4,6-dichloro-1-(4-methanesulfonylphenoxy)indan-2-ylmethyl]dimethylamine]: under setting [1], the inhibition at 10 µM was 20 to 50%. With `N[C@@H]1CCCN([C@H]2CCc3ccccc3[C@@H]2Oc2ccnc(Cl)c2)C1` (racemic) [Example 40, (R)-1-[rac-trans-(1,2)-1-(2-chloropyridin-4-yloxy)-1,2,3,4-tetrahydronaphthalen-2-yl]piperidin-3-ylamine], the inhibition at 10 µM under setting [1] was 20 to 50%.
